Key:
[1] = system: CD34+ cells; experiment: Scaled-up CD34+ expansion in gas-permeable fluorocarbon culture bag; type: cell-based, human
Description: CD34^+ cells were seeded in 10^4/mL pomalidomide-supplemented medium in a flexible, gas-permeable fluorocarbon culture bag (American Fluoroseal). After 7 days of incubation, the culture was centrifuged and exchanged with fresh pomalidomide-supplemented medium at three times the initial volume. By day 12, TNC and CD34^+ expansion were 350 (range: 250-700) and 200 (range: 100-450) fold, respectively (FIG. 3). Viability was 86% (range: 80-90%) by trypan blue. A total of 20 million CD34^+ cells were harvested.

[2] = system: Pomalidomide-expanded CD34+ cells; experiment: Cumulative colony forming units of expanded CD34+ cells; type: cell-based, human
[3] = system: human UCB derived CD34+ cells; experiment: Ex-vivo expansion of CD34+ cells in short-term serum-free, cytokine supplemented culture; type: cell-based; settings: for CD34+ phenotype in the expanded population: control 10-30%; for total nucleated cell expansion: not impacted vs control
Description: The ability of pomalidomide to enhance the expansion of human UCB derived CD34^+ cells in a short-term serum-free, cytokine supplemented culture system was evaluated. CD34^+ progenitor cells were enriched from cryopreserved UCB units to >90% purity and seeded (10^4 CD34^+ cells) in 1 mL of growth medium, which consists of IMDM plus serum substitute BIT (BSA, recombinant human insulin and transferrin, 20%), in the presence of SCF (50 ng/mL), Flt-3 ligand (50 ng/mL), and IL-3 (10 ng/mL). Pomalidomide, dissolved in DMSO, was supplemented at 2.7 μg/mL. The culture was incubated at 37° C., 5% CO2 for 12 days, with fresh medium added at day 7. Pomalidomide-free cultures with or without DMSO (0.05% v/v) were used as controls.

[4] = day 12, seeded 10^4/mL, medium exchanged day 7 (FIG. 3)
[5] = first experiment, 2.7 μg/mL, 12 days

SMILES: Nc1cccc2c1C(=O)N(C1CCC(=O)NC1=O)C2=O (centres unmarked) [pomalidomide, 4-(Amino)-2-(2,6-dioxo(3-piperidyl))-isoindoline-1,3-dione]
- Viability by trypan blue ([1]; day 12): 86%
- total CD34+ cells harvested ([1]; day 12): 20 million
- CD34+ expansion [1, 4]: 200 (range: 100-450) fold
- TNC expansion [1, 4]: 350 (range: 250-700) fold
- ex-vivo expansion of placental derived CD34+ progenitors ([1]; overall conclusion): significantly enhanced
- cumulative colony forming units relative to expanded controls ([2]; first experiment): substantial improvement
- cumulative colony forming units relative to expanded controls ([2]; second, similar experiment): substantial improvement
- CD38 expression on cultured cells [3, 5]: appeared to down-regulate CD38 expression
- CD38 negative fraction of expanded CD34+ cells [3, 5]: 95%
- CD34+ phenotype in the expanded population [3, 5]: 40-60%
- CD133 level on expanded CD34+ cells ([3]; first experiment, 2.7 μg/mL, 12 days, control 40%): 15%
- total nucleated cell expansion ([3]; first experiment, pomalidomide 2.7 μg/mL, 12 days): 200-350 fold
- CD38 expression on cultured cells ([3]; second, similar experiment): appeared to down-regulate CD38 expression
- CD38 negative fraction of expanded CD34+ cells ([3]; second, similar experiment): 97%
- CD34+ phenotype in the expanded population ([3]; second, similar experiment (FIG. 2)): 40-60%
- total nucleated cell expansion ([3]; second, similar experiment, 2.7 μg/mL, 12 days): 200-350 fold
- CD133 level on expanded CD34+ cells ([3]; second, similar experiment, control 32.3%): 11.5%
